Source: BindingDB's records for doi:10.1021/jm021084k (2003)

What was measured:
[1] = molecular target: Histamine H3 receptor (Cavia porcellus, UniProt Q9JI35); test: Potency at histamine H3 receptor subtype, was tested on guinea pig right ileum
[2] = molecular target: Histamine H1 receptor (Cavia porcellus, UniProt P31389); test: Potency at histamine H1 receptor subtype, was tested on guinea pig right ileum
[3] = molecular target: Histamine H2 receptor (Cavia porcellus, UniProt P47747); test: Potency at histamine H2 receptor subtype, was tested on guinea pig right atrium
Sequence of Histamine H2 receptor (P47747 whole entry): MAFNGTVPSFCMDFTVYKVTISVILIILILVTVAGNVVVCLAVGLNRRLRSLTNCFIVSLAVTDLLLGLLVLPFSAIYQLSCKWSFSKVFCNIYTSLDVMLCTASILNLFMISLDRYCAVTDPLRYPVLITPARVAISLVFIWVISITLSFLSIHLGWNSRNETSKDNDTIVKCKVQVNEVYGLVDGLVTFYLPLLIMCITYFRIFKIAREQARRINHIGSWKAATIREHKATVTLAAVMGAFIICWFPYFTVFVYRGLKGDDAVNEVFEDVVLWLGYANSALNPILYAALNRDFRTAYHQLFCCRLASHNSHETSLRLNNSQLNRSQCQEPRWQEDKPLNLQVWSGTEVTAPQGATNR

Sequence of Histamine H1 receptor (P31389 whole entry): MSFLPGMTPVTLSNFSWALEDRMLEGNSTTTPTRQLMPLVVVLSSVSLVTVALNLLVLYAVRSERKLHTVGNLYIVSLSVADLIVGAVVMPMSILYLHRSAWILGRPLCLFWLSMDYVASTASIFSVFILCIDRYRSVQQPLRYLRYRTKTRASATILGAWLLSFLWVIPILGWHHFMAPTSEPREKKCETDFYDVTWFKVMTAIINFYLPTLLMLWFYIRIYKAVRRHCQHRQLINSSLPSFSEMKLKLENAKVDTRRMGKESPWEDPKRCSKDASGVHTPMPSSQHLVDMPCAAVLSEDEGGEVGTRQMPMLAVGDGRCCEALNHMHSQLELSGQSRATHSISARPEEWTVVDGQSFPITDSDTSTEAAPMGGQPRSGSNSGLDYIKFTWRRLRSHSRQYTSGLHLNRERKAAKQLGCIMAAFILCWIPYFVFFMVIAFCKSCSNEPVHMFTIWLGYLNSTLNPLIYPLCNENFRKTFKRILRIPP
Sequence of Histamine H3 receptor (Q9JI35 whole entry): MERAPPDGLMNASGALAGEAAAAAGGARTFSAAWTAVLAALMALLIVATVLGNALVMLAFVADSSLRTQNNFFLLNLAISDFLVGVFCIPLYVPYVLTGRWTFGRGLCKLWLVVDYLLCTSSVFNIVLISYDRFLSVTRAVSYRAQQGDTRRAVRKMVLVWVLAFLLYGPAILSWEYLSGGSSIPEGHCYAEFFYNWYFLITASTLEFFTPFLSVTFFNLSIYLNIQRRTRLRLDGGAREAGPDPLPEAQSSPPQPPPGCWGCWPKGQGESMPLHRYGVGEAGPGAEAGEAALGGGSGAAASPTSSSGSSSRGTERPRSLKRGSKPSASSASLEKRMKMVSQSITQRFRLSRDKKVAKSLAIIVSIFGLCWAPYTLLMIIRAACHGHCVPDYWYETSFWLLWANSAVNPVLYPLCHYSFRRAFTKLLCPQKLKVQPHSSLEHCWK

Question: Which Kd [1] does the source give for CC(N=O)c1ccc(OCc2ccc(CN3CCCCC3)cc2)cc1 (stereo not drawn) [1-[4-(4-Piperidin-1-ylmethyl-benzyloxy)-phenyl]-ethanone oxime] here?
Answer: 0.0851 µM

Question: And the Kd [2]?
Answer: 7.94 µM

Question: What about the Kd [3] of the same molecule?
Answer: 14.1 µM
